In ChEMBL document CHEMBL1201862, “PubChem BioAssay data set” (2004):
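Briefly, cells in 96-well plates were exposed to five compound concentrations for 48 h, and endpoints were estimated by linear interpolation. GI50 is the concentration that inhibits growth by half.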 The source made the active and inactive calls. No stated cut-off is given here; in the data, active = GI50 up to about 1.1 µM and inactive = higher.

Key:
Assay in all cases: NCI anticancer screen, dose series, 48 h
786-0 = test system: 786-0
A498 = test system: A498
COLO 205 = test system: COLO 205
DU-145 = test system: DU-145
KM12 = test system: KM12
LOX IMVI = test system: LOX IMVI
MCF7 = test system: MCF7
MDA-MB-231 = test system: MDA-MB-231
MDA-MB-435 = test system: MDA-MB-435
MDA-N = test system: MDA-N
NCI-H226 = test system: NCI-H226
NCI/ADR-RES = test system: NCI/ADR-RES
OVCAR-5 = test system: OVCAR-5
RXF 393 = test system: RXF 393
SF-268 = test system: SF-268
SK-MEL-28 = test system: SK-MEL-28
SK-MEL-5 = test system: SK-MEL-5
SR = test system: SR
U-251 = test system: U-251
HL-60 = test system: HL-60

Measured: GI50

Cc1ccc(S(=O)(=O)Nc2nnc(S(N)(=O)=O)s2)cc1
inactive: 786-0 > 100 µM | A498 > 100 µM | COLO 205 > 100 µM | DU-145 > 100 µM | KM12 > 100 µM | LOX IMVI > 100 µM | MCF7 > 100 µM | MDA-MB-231 > 100 µM | MDA-MB-435 > 100 µM | MDA-N > 100 µM | NCI-H226 > 100 µM | NCI/ADR-RES > 100 µM | OVCAR-5 > 100 µM | RXF 393 > 100 µM | SF-268 > 100 µM | SK-MEL-28 > 100 µM | SK-MEL-5 > 100 µM | SR > 100 µM | U-251 > 100 µM

O=C1N[C@H]2C(=O)c3c(Br)sc(Br)c3[C@H]2O1
inactive: 786-0 8.26 µM | A498 18.7 µM | COLO 205 3.52 µM | DU-145 13.2 µM | KM12 19 µM | LOX IMVI 3.08 µM | MCF7 10.7 µM | MDA-MB-231 8.83 µM | MDA-MB-435 3.89 µM | MDA-N 7.01 µM | NCI-H226 18.1 µM | NCI/ADR-RES 13.4 µM | OVCAR-5 17.7 µM | RXF 393 3.18 µM | SF-268 4.1 µM | SK-MEL-28 3.41 µM | SK-MEL-5 14 µM | SR 1.87 µM | U-251 3.48 µM

Cc1nc(N)c(N2CCN(CN)CC2)c(O)n1
inactive: 786-0 > 100 µM | A498 > 100 µM | COLO 205 > 100 µM | DU-145 > 100 µM | HL-60 > 100 µM | KM12 > 100 µM | LOX IMVI > 100 µM | MCF7 > 100 µM | MDA-MB-231 > 100 µM | MDA-MB-435 > 100 µM | MDA-N > 100 µM | NCI-H226 > 100 µM | NCI/ADR-RES > 100 µM | OVCAR-5 > 100 µM | SF-268 > 100 µM | SK-MEL-28 > 100 µM | SR > 100 µM | U-251 > 100 µM

COC(=O)NC(Nc1ccccn1)(C(F)(F)F)C(F)(F)F
inactive: 786-0 > 100 µM | A498 > 100 µM | DU-145 > 100 µM | HL-60 > 100 µM | KM12 > 100 µM | LOX IMVI > 100 µM | MCF7 > 100 µM | MDA-MB-231 > 100 µM | MDA-MB-435 > 100 µM | MDA-N > 100 µM | NCI-H226 > 100 µM | NCI/ADR-RES > 100 µM | OVCAR-5 > 100 µM | RXF 393 29.9 µM | SF-268 > 100 µM | SK-MEL-28 > 100 µM | SK-MEL-5 > 100 µM | SR > 100 µM | U-251 > 100 µM

CC1Cc2c(cc(N)nc2Br)NC1=O (stereo not given)
inactive: 786-0 > 100 µM | COLO 205 > 100 µM | DU-145 > 100 µM | HL-60 > 10 µM | KM12 > 100 µM | LOX IMVI > 100 µM | MCF7 > 100 µM | MDA-MB-231 > 100 µM | MDA-MB-435 62.4 µM | MDA-N 46.1 µM | NCI-H226 > 100 µM | NCI/ADR-RES > 100 µM | OVCAR-5 > 100 µM | RXF 393 81.8 µM | SF-268 > 100 µM | SK-MEL-28 > 100 µM | SK-MEL-5 85.1 µM | SR 84.1 µM | U-251 > 100 µM

COCn1c(C)c(C)c2c(=O)oc(N(C)C)nc21
inactive: 786-0 > 100 µM | A498 39 µM | COLO 205 > 100 µM | DU-145 > 100 µM | HL-60 > 100 µM | KM12 > 100 µM | LOX IMVI > 100 µM | MCF7 > 100 µM | MDA-MB-231 > 100 µM | MDA-MB-435 > 100 µM | MDA-N > 100 µM | NCI-H226 > 100 µM | NCI/ADR-RES > 100 µM | OVCAR-5 > 100 µM | RXF 393 > 100 µM | SK-MEL-28 > 100 µM | SK-MEL-5 > 100 µM | SR > 100 µM | U-251 > 100 µM

CN(C)CCNC(=O)c1cccc2c(NC(CCC(N)=O)C(=O)O)c3ccccc3nc12 (stereo not given)
inactive: 786-0 9.84 µM | A498 16.2 µM | COLO 205 4.8 µM | DU-145 19.5 µM | KM12 7.78 µM | LOX IMVI 5.48 µM | MCF7 4.55 µM | MDA-MB-231 7.66 µM | MDA-MB-435 6.14 µM | MDA-N 8.73 µM | NCI-H226 4.95 µM | NCI/ADR-RES 9.98 µM | OVCAR-5 9.51 µM | SF-268 5.14 µM | SK-MEL-28 12.5 µM | SK-MEL-5 10.6 µM | SR > 100 µM | U-251 8.15 µM

Cc1ccc([N+](=O)[O-])cc1S(=O)(=O)Nc1ccc(C2=NOC(c3cccs3)C2)cc1 (stereo not given)
inactive: 786-0 17.5 µM | A498 4.56 µM | COLO 205 7.8 µM | DU-145 17.6 µM | HL-60 3.55 µM | KM12 7.18 µM | LOX IMVI 11 µM | MCF7 5.73 µM | MDA-MB-231 18.7 µM | MDA-MB-435 2.53 µM | MDA-N 2.74 µM | NCI-H226 25.1 µM | NCI/ADR-RES 4.13 µM | OVCAR-5 32.3 µM | RXF 393 5.02 µM | SF-268 18.4 µM | SK-MEL-28 20.1 µM | SK-MEL-5 7.66 µM | SR 2.05 µM
